Measurements published in patent US10202381B2, “Histone demethylase inhibitors” (CELGENE QUANTICEL RESEARCH, INC., priority 2014, dated 2019).
Read-outs that look alike come from different tables or passages of the source.

Legend:
[1] = system: KYSE-150 esophageal carcinoma cell line; assay: In vitro cell-based assay: BrdU cell proliferation ELISA; set-up: species or system human; settings: KYSE-150 cells, BrdU incorporation after 168 hr of compound incubation, read-out: Cellular IC50
Procedure: Cell lines tested include the JMJD2C gene amplified cell line KYSE-150. This is a quantitative ELISA assay measuring DNA incorporation of BrdU during S-phase as a direct readout of cellular proliferation.
Assay Principle: This is a colorimetric immunoassay for the quantification of cell proliferation. Cells treated for 168 hr with test compounds are assayed for their ability to go through S-phase as a measure of their proliferative potential.
Assay Method: The human KYSE-150 (SMAD4 mut, TP53 mut) esophageal carcinoma cell line was seeded at 2,000 cells/well on a 96-well tissue culture treated plate. After an overnight incubation, cells were treated with compound in an 11-point dilution series with final concentrations ranging from 100 μM to 2 nM. Cells were then incubated in the presence of compound for 168 hr. After compound incubation the cells were assayed using a BrdU Cell Proliferation ELISA (Roche). The cells were first incubated with BrdU labeling reagent for 2 hr. After 2 hr, the BrdU incorporated cells were fixed and denatured, probed with an anti-BrdU-Peroxidase antibody for 1.5 hr and washed. Finally, a tetramethylbenzidine peroxidase substrate was added to each well for 15 min. followed by a H2SO4 stop solution. The plate was read at 450 nm, and the raw optical density data was transferred into XLFit (IDBS) for IC50 calculation using the formula: fit=(D+((Vmax*(x^n))/((x^n)+(Km^n)))).
Table 4 provides the cellular IC50 values of various compounds disclosed herein.

JMJD2C = JMJD2C (Homo sapiens (Human), UniProt Q9H3R0); assay: In vitro enzyme inhibition assay (JMJD2C TR-FRET); format: biochemical; settings: 0.3 nM JMJD2C, 300 nM H3K9me3-biotin peptide, 2 μM alpha-ketoglutaric acid
Chain of JMJD2C (Q9H3R0 2-372): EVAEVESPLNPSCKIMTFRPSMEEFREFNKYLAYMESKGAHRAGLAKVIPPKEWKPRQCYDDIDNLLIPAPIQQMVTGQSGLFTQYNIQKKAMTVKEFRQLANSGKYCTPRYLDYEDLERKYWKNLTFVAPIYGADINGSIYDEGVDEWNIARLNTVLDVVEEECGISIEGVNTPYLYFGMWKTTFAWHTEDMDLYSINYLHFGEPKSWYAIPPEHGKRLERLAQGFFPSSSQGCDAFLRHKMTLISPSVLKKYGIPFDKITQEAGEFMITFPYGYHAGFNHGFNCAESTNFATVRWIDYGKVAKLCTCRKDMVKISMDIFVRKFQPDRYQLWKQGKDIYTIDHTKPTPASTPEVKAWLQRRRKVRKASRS
Procedure: This assay determines the ability of a test compound to inhibit JMJD2C demethylase activity. Baculovirus expressed JMJD2C (GenBank Accession #BC143571, AA 2-372) was purchased from BPS Bioscience (Cat#50105).
The ability of test compounds to inhibit the activity of JMJD2C was determined in 384-well plate-format under the following reaction conditions: 0.3 nM JMJD2C, 300 nM H3K9me3-biotin labeled peptide (Anaspec cat #64360), 2 μM alpha-ketoglutaric acid in assay buffer of 50 mM HEPES, pH 7.3, 0.005% Brij35, 0.5 mM TCEP, 0.2 mg/ml BSA, 50 μM sodium L-ascorbate, and 2 μM ammonium iron(II) sulfate. Reaction product was determined quantitatively by TR-FRET after the addition of detection reagent Phycolink Streptavidin-allophycocyanin (Prozyme) and Europium-anti-di-methylated histone H3 lysine 9 (H3K9me2) antibody (PerkinElmer) in the presence of 5 mM EDTA in LANCE detection buffer (PerkinElmer) at a final concentration of 50 nM and 1 nM, respectively.
The assay reaction was initiated by the following: 2 μl of the mixture of 900 nM H3K9me3-biotin labeled peptide and 6 μM alpha-ketoglutaric acid with 2 μl of 11-point serial diluted inhibitor in 3% DMSO were added to each well of the plate, followed by the addition of 2 μl of 0.9 nM JMJD2C to initiate the reaction. The reaction mixture was incubated at room temperature for 30 min, and terminated by the addition of 6 μl of 5 mM EDTA in LANCE detection buffer containing 100 nM Phycolink Streptavidin-allophycocyanin and 2 nM Europium-anti-H3K9me2 antibody. Plates were read by EnVisionMultilabel Reader in TR-FRET mode (excitation at 320 nm, emission at 615 nm and 665 nm) after 1 hr incubation at room temperature. A ratio was calculated (665/615) for each well and fitted to determine inhibition constant (IC50).
The ability of the compounds disclosed herein to inhibit demethylase activity was quantified and the respective IC50 value was determined. Table 3 provides the IC50 values of various compounds disclosed herein.

| Compound | IC50 [1] [nM] | IC50 (JMJD2C) [nM] | IC50 ([1]; Homo sapiens) [nM] |
| --- | --- | --- | --- |
| 2-(4-{[4-(4-amino-piperidin-1-yl)-phenyl]-methyl-amino}-phenoxy)-pyrido[3,4-d]pyrimidin-4-ol [Example 23] | 1000 to 10000 | 100 to 1000 |  |
| CN(c1ccc(Oc2nc(O)c3ccncc3n2)cc1)c1ccc2c(c1)OCC2(C)C [Example 116] |  | 100 to 1000 |  |
| CC(C)c1ccc(N(c2ccc(Oc3nc(O)c4ccncc4n3)cc2)C2CCOCC2)cc1 [Example 118, 2-(4-((4-isopropylphenyl)(tetrahydro-2H-pyran-4-yl)amino)phenoxy)pyrido[3,4-d]pyrimidin-4-ol] |  |  | 1000 to 10000 |
| CC(C)c1ccc(N(c2ccc(Oc3nc(O)c4ccncc4n3)cc2)C2CCN(C)CC2)cc1 [Example 119, 2-(4-((4-isopropylphenyl)(1-methylpiperidin-4-yl)amino)phenoxy)pyrido[3,4-d]pyrimidin-4-ol] |  | ≤ 100 | > 10000 |
| CCCN(c1ccc(Oc2nc(O)c3ccncc3n2)cc1)c1ccc(C(C)C)cc1 [Example 120, 2-(4-((4-isopropylphenyl)(propyl)amino)phenoxy)pyrido[3,4-d]pyrimidin-4-ol] |  | 100 to 1000 | 1000 to 10000 |
| CC(C)c1ccc(Nc2ccc(Oc3nc(O)c4ccncc4n3)cc2)cc1 [Example 121, 2-(4-((4-isopropylphenyl)amino)phenoxy)pyrido[3,4-d]pyrimidin-4-ol] |  | ≤ 100 | 1000 to 10000 |
| CC(C)c1ccc(N(c2ccc(Oc3nc(O)c4ccncc4n3)cc2)C(C)C)cc1 [Example 122] |  | 1000 to 10000 |  |
| CC(C)CN(c1ccc(Oc2nc(O)c3ccncc3n2)cc1)c1ccc(C(C)C)cc1 [Example 123, 2-(4-(isobutyl(4-isopropylphenyl)amino)phenoxy)pyrido[3,4-d]pyrimidin-4-ol] |  | 1000 to 10000 |  |
| CC(C)c1ccc(N(c2ccc(Oc3nc(O)c4ccncc4n3)cc2)C2CCCN(C)C2)cc1 (centres unmarked) [Example 124, 2-(4-((4-isopropylphenyl)(1-methylpiperidin-3-yl)amino)phenoxy)pyrido[3,4-d]pyrimidin-4-ol] |  | ≤ 100 | 1000 to 10000 |
| CC(C)c1ccc(N(c2ccc(Oc3nc(O)c4ccncc4n3)cc2)C2CCCC2)cc1 [Example 125, 2-(4-(cyclopentyl(4-isopropylphenyl)amino)phenoxy)pyrido[3,4-d]pyrimidin-4-ol] |  | 1000 to 10000 | ≤ 100 |
| CC(C)c1ccc(N(c2ccc(Oc3nc(O)c4ccncc4n3)cc2)C2CCNC2)cc1 (centres unmarked) [Example 126, 2-(4-((4-isopropylphenyl)(pyrrolidin-3-yl)amino)phenoxy)pyrido[3,4-d]pyrimidin-4-ol] |  | ≤ 100 | ≤ 100 |
| CC(C)c1ccc(N(c2ccc(Oc3nc(O)c4ccncc4n3)cc2)C2CCN(C)C2)cc1 (centres unmarked) [Example 127, 2-(4-((4-isopropylphenyl)(1-methylpyrrolidin-3-yl)amino)phenoxy)pyrido[3,4-d]pyrimidin-4-ol] |  | ≤ 100 | > 10000 |
| Cc1ccc2c(c1)CCN2c1ccc(Oc2nc(O)c3ccncc3n2)cc1 [Example 128] |  | ≤ 100 | ≤ 100 |
| Cc1ccc2c(ccn2-c2ccc(Oc3nc(O)c4ccncc4n3)cc2)c1 [Example 129, 2-(4-(5-methyl-1H-indol-1-yl)phenoxy)pyrido[3,4-d]pyrimidin-4-ol] |  | ≤ 100 | 1000 to 10000 |
| CC(C)c1ccc(N(c2ccc(Oc3nc(O)c4ccncc4n3)cc2)C2CCCNC2)cc1 (centres unmarked) [Example 130, 2-(4-((4-isopropylphenyl)(piperidin-3-yl)amino)phenoxy)pyrido[3,4-d]pyrimidin-4-ol] |  | ≤ 100 | > 10000 |
| Cc1cc(Oc2nc(O)c3ccncc3n2)ccc1N(C)c1ccc(C(C)C)cc1 [Example 131, 2-(4-((4-isopropylphenyl)(methyl)amino)-3-methylphenoxy)pyrido[3,4-d]pyrimidin-4-ol] |  | 100 to 1000 | > 10000 |
| CC(C)N1CCN(c2cccc(N(C)c3ccc(Oc4nc(O)c5ccncc5n4)cc3)c2)CC1 [Example 132, 2-(4-((3-(4-isopropylpiperazin-1-yl)phenyl)(methyl)amino)phenoxy)pyrido[3,4-d]pyrimidin-4-ol] |  |  | 100 to 1000 |
| CN1CCN(c2cccc(N(C)c3ccc(Oc4nc(O)c5ccncc5n4)cc3C(F)(F)F)c2)CC1 [Example 133, 2-(4-(methyl(3-(4-methylpiperazin-1-yl)phenyl)amino)-3-(trifluoromethyl)phenoxy)pyrido[3,4-d]pyrimidin-4-ol] |  | ≤ 100 | 1000 to 10000 |
| Cc1cc(Oc2nc(O)c3ccncc3n2)ccc1N(C)c1cccc(N2CCN(C)CC2)c1 [Example 134, 2-(3-methyl-4-(methyl(3-(4-methyl-piperazin-1-yl)phenyl)amino)phenoxy)pyrido[3,4-d]pyrimidin-4-ol] |  | ≤ 100 | 1000 to 10000 |
| CCc1ccc(N(C)c2ccc(Oc3nc(O)c4ccncc4n3)cc2)cc1OC [Example 135, 2-(4-((4-ethyl-3-methoxyphenyl)(methyl)amino)phenoxy)pyrido[3,4-d]pyrimidin-4-ol] |  | 100 to 1000 | 1000 to 10000 |
| CN1CC=C(c2cccc(N(C)c3ccc(Oc4nc(O)c5ccncc5n4)cc3)c2)CC1 [Example 139, 2-(4-(methyl(3-(1-methyl-1,2,3,6-tetrahydropyridin-4-yl)phenyl)amino)phenoxy)pyrido[3,4-d]pyrimidin-4-ol] |  | ≤ 100 |  |
| CN1CCN(c2cccc(N(CC3CC3)c3ccc(Oc4nc(O)c5ccncc5n4)cc3)c2)CC1 [Example 142, 2-(4-((cyclopropylmethyl)(3-(4-methylpiperazin-1-yl)phenyl)amino)phenoxy)pyrido[3,4-d]pyrimidin-4-ol] |  | ≤ 100 |  |
| CC(C)c1ccc(N(C)c2ccc(Oc3nc(O)c4ccncc4n3)cc2C(F)(F)F)cc1 [Example 143, 2-(4-((4-isopropylphenyl)(methyl)amino)-3-(trifluoromethyl)phenoxy)pyrido[3,4-d]pyrimidin-4-ol] |  | 1000 to 10000 |  |
| CCc1ccc(N(C)c2ccc(Oc3nc(O)c4ccncc4n3)cc2C)cc1 [Example 144, 2-(4-((4-ethylphenyl)(methyl)amino)-3-methylphenoxy)pyrido[3,4-d]pyrimidin-4-ol] |  | ≤ 100 |  |
| COc1ccc(N2CCN(C)CC2)cc1N(C)c1ccc(Oc2nc(O)c3ccncc3n2)cc1 [Example 145, 2-(4-((2-methoxy-5-(4-methylpiperazin-1-yl)phenyl)(methyl)amino)phenoxy)pyrido[3,4-d]pyrimidin-4-ol] |  | ≤ 100 |  |
| CCOc1ccc(N2CCN(C)CC2)cc1N(C)c1ccc(Oc2nc(O)c3ccncc3n2)cc1 [Example 146, 2-(4-((2-ethoxy-5-(4-methylpiperazin-1-yl)phenyl)(methyl)amino)phenoxy)pyrido[3,4-d]pyrimidin-4-ol] |  | ≤ 100 |  |
| Cc1ccc(N2CCN(C)CC2)cc1N(C)c1ccc(Oc2nc(O)c3ccncc3n2)cc1 [Example 147, 2-(4-(methyl(2-methyl-5-(4-methylpiperazin-1-yl)phenyl)amino)phenoxy)pyrido[3,4-d]pyrimidin-4-ol] |  | ≤ 100 |  |
| Cc1cc(Oc2nc(O)c3ccncc3n2)ccc1N(C)c1ccc(C(C)(C)C)cc1 [Example 148, 2-(4-((4-(tert-butyl)phenyl)(methyl)amino)-3-methylphenoxy)pyrido[3,4-d]pyrimidin-4-ol] |  | 100 to 1000 |  |
| CCCc1ccc(N(C)c2ccc(Oc3nc(O)c4ccncc4n3)cc2C)cc1 [Example 149, 2-(3-methyl-4-(methyl(4-propylphenyl)amino)phenoxy)pyrido[3,4-d]pyrimidin-4-ol] |  | 100 to 1000 |  |
